Values belong to the molecule of their own block, whether it stands above or below them.
Assays:
[1] = test system: mouse hepatocytes; assay: Metabolism and metabolite formation in hepatocytes; format: in vitro ADME, ICR mouse;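 on Area Ratio T0 h: peak area of analyte divided by internal standard peak area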;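 on Area Ratio T4 h: peak area of analyte divided by internal standard peak area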
From the text: (§1) All the samples were duplicates.

[2] = test system: dog hepatocytes; assay: Metabolism and metabolite formation in hepatocytes; format: in vitro ADME, beagle dog;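 on Area Ratio T0 h: peak area of analyte divided by internal standard peak area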;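 on Area Ratio T4 h: peak area of analyte divided by internal standard peak area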
From the text: as §1

[3] = test system: monkey hepatocytes; assay: Metabolism and metabolite formation in hepatocytes; format: in vitro ADME, cynomolgus monkey;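 on Area Ratio T4 h: peak area of analyte divided by internal standard peak area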
From the text: as §1

[4] = test system: human hepatocytes; assay: Metabolism and metabolite formation in hepatocytes; conditions: human hepatocytes
[5] = test system: rat hepatocytes; assay: Metabolism and metabolite formation in hepatocytes; format: in vitro ADME, SD rat;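 on Area Ratio T0 h: peak area of analyte divided by internal standard peak area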
From the text: as §1

[6] = test system: rat hepatocytes; assay: in vitro
Description: (§2) After mixing, 20 μL of cell suspension was serially transferred into 200 μL of cold acetonitrile containing IS at the time points of 0, 5, 15, 30, 60, and 120 min, respectively.
(§3) The metabolic stability was assessed by measuring the depletion of substrate. The half-life (t1/2), intrinsic clearance (CLint, in virto, µL·min^-1·million cells^-1), whole liver intrinsic clearance (CLint, in vivo, mL·min-1·kg^-1), and in vivo hepatic clearance (CLH, mL·min-1·kg^-1) were calculated following a reported method. In the calculation of CLH, the fraction drug unbound (Fub) was set as 1. The hepatic blood flow, liver weight, and hepatocellularity of five species were used for the calculation of CLint, in vivo [13, 14]. The hepatic extraction ratio (Eh) means the ratio of CLH to hepatic blood flow.

[7] = test system: dog hepatocytes; assay: in vitro
Description: as §2, §3

[8] = in vitro; conditions: hepatocytes
Description: as §2, §3

[9] = test system: monkey hepatocytes; assay: in vitro
Description: as §2, §3

[10] = test system: human hepatocytes; assay: in vitro
Description: as §2, §3

[11] = test system: mouse hepatocytes; assay: in vitro
Description: as §2, §3

[12] = Metabolite identification in dog plasma; format: in vivo, beagle dogs; conditions: oral 8 mg/kg BPI-460372, average of male and female pooled samples
Description: (§4) The plasma samples were acquired from SD rats (n=6, 3 female and 3 male) and beagle dogs (n=6, 3 female and 3 male) after administration of 12 mg/kg and 8 mg/kg of BPI-460372, respectively. The rat urine, feces, and bile samples were acquired in SD rats after administration of 6 mg/kg of BPI-460372.
(§5) Equal volume from each rat was pooled together to get 1 male and 1 female 0-24 h plasma samples. An equal percentage by volume of individual urine sample (0-8, 8-24, and 24-48 h) from 3 female and 3 male rats was pooled by time interval across rats, respectively, resulting in two pooled urine samples (1 male and 1 female). An equal percentage by weight of individual feces samples (0-8, 8-24, and 24-48 h) was pooled by time interval across female and male rats, resulting in two pooled fecal samples. An equal percentage by volume of individual bile samples (0-4, 4-8, 8-24, and 24-48 h) was pooled by time interval across female and male rats, resulting in two pooled bile samples. […] Equal volumes from 3 female and 3 male rats were pooled together to get two 0-48 h plasma samples. For blank samples of plasma, urine, and bile, equal volume was pooled across subjects. For a blank sample of feces, equal weight was pooled across rats.
(§6) The pooled plasma, feces, and bile samples were extracted by adding 3-fold volume of acetonitrile, and the mixture was vortexed (1 min) and sonicated (1 min) before centrifugation (7220 g, 5 min). The pooled urine samples were centrifuged (7220 g, 5 min). Then the supernatant was transferred into a clean tube and evaporated to dryness under the nitrogen stream. The residues were redissolved with an appropriate volume of acetonitrile/water (20: 80, v: v). After centrifugation, the redissolved solution was transferred into an HPLC vial for UHPLC-Orbitrap-HRMS (15000 g, 10 min, 4°C).

[13] = Metabolite identification in rat plasma, urine, feces and bile; format: in vivo, SD rats; conditions: for Relative abundance of MS peak areas, Rat Plasma 0-24 h: oral 12 mg/kg BPI-460372, average of male and female pooled samples
Description: as §4, §5, §6

[14] = oral 6 mg/kg BPI-460372, average of male and female pooled samples

Area Ratio T0 h ([1]; mouse hepatocytes, 7-EC incubation, 0 h): 0.00E+00
Area Ratio T4 h ([1]; mouse hepatocytes, 7-EC incubation, 4 h): 7.44E+06
Area Ratio T0 h ([2]; dog hepatocytes, 7-EC incubation, 0 h): 0.00E+00
Area Ratio T4 h ([2]; dog hepatocytes, 7-EC incubation, 4 h): 1.27E+07
Area Ratio T0 h ([3]; monkey hepatocytes, 7-EC incubation, 0 h): 6.08E+02
Area Ratio T4 h ([3]; monkey hepatocytes, 7-EC incubation, 4 h): 1.55E+07
Area Ratio T0 h ([4]; 7-EC incubation, 0 h): 1.07E+03
Area Ratio T4 h ([4]; 7-EC incubation, 4 h): 3.85E+06
Area Ratio T0 h ([5]; rat hepatocytes, 7-EC incubation, 0 h): 1.45E+02
Area Ratio T4 h ([5]; rat hepatocytes, 7-EC incubation, 4 h): 8.08E+05
SMILES: O=C(O)[C@H]1O[C@@H](Oc2ccc3ccc(=O)oc3c2)[C@H](O)[C@@H](O)[C@@H]1O [7-EC-GluA, reference compound]

CLH ([6]; SD, rat, 1 µM): 39.9 mL/min/kg
Eh ([6]; SD, rat, 1 µM): 0.723
CLint, in vivo ([6]; hepatocytes): 144.0 mL/min/kg
CLint, in virto ([6]; rat, hepatocytes): 30.8 µL·min^-1·Million cells^-1
CLH ([7]; beagle, dog, 1 µM): 25.9 mL/min/kg
Eh ([7]; beagle, dog, 1 µM): 0.838
CLint, in virto ([7]; dog, hepatocytes): 23.3 µL·min^-1·Million cells^-1
CLint, in vivo ([7]; hepatocytes): 160.0 mL/min/kg
half-life at 1 µM ([8]; ICR, mouse): 49.3 min
half-life at 1 µM ([8]; SD, rat): 22.5 min
half-life at 1 µM ([8]; beagle, dog): 29.8 min
half-life at 1 µM ([8]; human): 20.4 min
half-life at 1 µM ([8]; monkey): 17.8 min
CLH ([9]; cynomolgus monkey, 1 µM): 33.5 mL/min/kg
Eh ([9]; cynomolgus monkey, 1 µM): 0.762
CLint, in vivo ([9]; hepatocytes): 140.6 mL/min/kg
CLint, in virto ([9]; monkey, hepatocytes): 39.0 µL·min^-1·Million cells^-1
CLint, in vivo ([10]; hepatocytes): 122.6 mL/min/kg
CLH ([10]; human, 1 µM): 17.7 mL/min/kg
Eh ([10]; human, 1 µM): 0.856
CLint, in virto ([10]; human, hepatocytes): 33.9 µL·min^-1·Million cells^-1
CLH ([11]; ICR, mouse, 1 µM): 58.5 mL/min/kg
Eh ([11]; ICR, mouse, 1 µM): 0.650
CLint, in vivo ([11]; hepatocytes): 167.1 mL/min/kg
CLint, in virto ([11]; mouse, hepatocytes): 14.1 µL·min^-1·Million cells^-1
SMILES: O=c1ccc2ccc(O)cc2o1 [7-hydroxycoumarin]

Relative abundance of MS peak areas, Dog Plasma 0-48 h [12]: 0.83%
Relative abundance of MS peak areas, Rat Feces 0-48 h [13, 14]: 2.77%
Relative abundance of MS peak areas, Rat Urine 0-48 h [13, 14]: 2.55%
Relative abundance of MS peak areas, Rat Plasma 0-24 h [13]: 0.065%
SMILES: NCC(C(=O)O)n1c(=O)n(-c2ccc(C(F)(F)F)cc2)c2nccnc21 (stereo not drawn) [M367]

UV (314 nm) Peak Areas Relative Abundance ([1]; ICR mouse hepatocytes, 10 µM BPI-460372, 4 h incubation): 3.57%
UV (314 nm) Peak Areas Relative Abundance ([2]; beagle dog hepatocytes, 10 µM BPI-460372, 4 h incubation): 2.44%
UV (314 nm) Peak Areas Relative Abundance ([3]; cynomolgus monkey hepatocytes, 10 µM BPI-460372, 4 h incubation): 2.50%
UV (314 nm) Peak Areas Relative Abundance ([4]; 10 µM BPI-460372, 4 h incubation): 1.48%
UV (314 nm) Peak Areas Relative Abundance ([5]; SD rat hepatocytes, 10 µM BPI-460372, 4 h incubation): 2.6%
SMILES: CC(=O)N1CC(n2c(=O)n(-c3ccc(C(F)(F)F)cc3)c3nccnc32)C1 [M377]

Relative abundance of MS peak areas, Dog Plasma 0-48 h [12]: 0.15%
Relative abundance of MS peak areas, Rat Bile 0-48 h [13, 14]: 0.040%
Relative abundance of MS peak areas, Rat Feces 0-48 h [13, 14]: 16.59%
Relative abundance of MS peak areas, Rat Urine 0-48 h [13, 14]: 0.050%
Relative abundance of MS peak areas, Rat Plasma 0-24 h [13]: 0.67%
SMILES: C=CC(=O)N1CC(n2c(=O)n(-c3ccc(C(F)(F)F)cc3)c3nccnc32)C1 [M389]

Relative abundance of MS peak areas, Dog Plasma 0-48 h [12]: 0.36%
Relative abundance of MS peak areas, Rat Feces 0-48 h [13, 14]: 21.50%
Relative abundance of MS peak areas, Rat Urine 0-48 h [13, 14]: 0.015%
Relative abundance of MS peak areas, Rat Plasma 0-24 h [13]: 0.35%
SMILES: CCC(=O)N1CC(n2c(=O)n(-c3ccc(C(F)(F)F)cc3)c3nccnc32)C1 [M391]

Relative abundance of MS peak areas, Dog Plasma 0-48 h [12]: 0.98%
Relative abundance of MS peak areas, Rat Feces 0-48 h [13, 14]: 2.79%
Relative abundance of MS peak areas, Rat Urine 0-48 h [13, 14]: 2.52%
Relative abundance of MS peak areas, Rat Plasma 0-24 h [13]: 0.14%
SMILES: O=c1n(-c2ccc(C(F)(F)F)cc2)c2nccnc2n1C1CN(C(O)C(O)CO)C1 (stereo not drawn) [M425]
